Where no end group is shown, it is not given here. The star is where a group is joined. For = O=C*
What was measured:
Assay type in all cases: cell-based, human
MDA-MB-231 cells = assay: MTT proliferation assay; conditions: for growth inhibition (MTT) after tamoxifen: MDA-MB-231, stimulation 24 or 48 hours then tamoxifen 5 μM final 20 hours, compared with tamoxifen alone; for effect on breast cancer cell proliferation alone (MTT): without tamoxifen
Procedure: (§1) MDA-MB-231 cells were grown in 6 well plates and stimulated with recombinant Wnt-5a protein (rW5a) or the Wnt-5a derived Foxy-5 peptide (F5), for 24 or 48 h. Cells were treated with tamoxifen for the final 20 h and their apoptotic responses were measured via different methods. […] Arrows highlight apoptotic cells. Bars represent […]. B: Following treatment with rW5a, F5 and tamoxifen, or tamoxifen alone, cells were lysed and subjected to SDS-PAGE, transferred to nitrocellulose membranes and blotted for cleaved caspase 3. C: Treated cells were assessed for their relative caspase 3 activity using fluorometric spectrophotometry. The graph represents 6 separate experiments. * P<0.01, ** P<0.001. D: MTT assays were also performed on MDA-MB-231 cells treated with rWnt-5a, F5 and tamoxifen, or tamoxifen alone (MDA-MB-231 and MCF-7 cells) to assess cell growth inhibition. The graph represents the average of 6 separate experiments, with standard deviation represented by error bars. ** P<0.01, *** P<0.001.
Cell proliferation was measured via MTT assay (Vybrant) following manufacturers instructions. Briefly, MDA-MB-231 and MCF-7 cells were grown in 96 well plates, then either left unstimulated, or stimulated with rWnt-5a (0.6 μg/ml) or Foxy-5 peptide (100 μM) for 24 or 48 hours. Cells were then treated with 5 μM tamoxifen (Sigma) for the final 20 hours. All cells were then labeled with MTT (3-(4,5-dimethylthiazol-2-yl)-2,5-diphenyltetrazolium bromide), incubated at 37° C. for 4 hours and absorbance measured on a Biorad 680 microplate reader (Biorad). The raw absorbance was measured in 9 replicates at 570 nm, and read outs averaged and adjusted accordingly. The experiment was performed 6 times, and results averaged.

cleaved caspase 3 = assay: Cleaved caspase 3 Western blot after tamoxifen; conditions: MDA-MB-231, stimulation plus tamoxifen, compared with cells treated only with tamoxifen
Procedure: as §1
Cells were lysed in Triton lysis buffer (50 mM Tris (pH7.5), 1% Triton x-100, 140 mM NaCl, 0.5 mM EDTA, 0.5 MgCl2, 10 mM NaF) with the addition of fresh leupeptin (1 μg/ml), Pefabloc (2 mM), aprotinin (20 μg/ml) and Na3VO4 (4 mM). […] Scanning and densitometry was performed using a Bio-Rad (Hercules Calif.) GS-800 densitometer with Quantity One software. […]

ERα = ERα mRNA by RT-PCR in stimulated MDA-MB-468 cells; conditions: time points 6, 12, 18 and 24 hours
Procedure: Breast cancer cells were grown in 6 well plates and stimulated with recombinant Wnt-5a protein (rW5a) or the Wnt-5a derived Foxy-5 peptide (F5), for 6, 12, 18 or 24 h. RNA was extracted at the end time point, cDNA synthesized and subjected to RT-PCR for ERα and the housekeeping gene, β-actin. A: MDA-MB-231 breast cancer cells, B: MDA-MB-468 breast cancer cells. The positive control (Pos) is RNA extracted from T47D cells which express ERα. The negative control represents a water control.
Stimulation of cells was performed with recombinant Wnt-5a (0.6 μg/ml) and recombinant Wnt-3a (0.1 μg/ml and in a control experiment, 0.6 μg/ml) (R&D Systems Abington, UK) for times as indicated. The Wnt-5a derived formylated hexapeptide, Foxy-5 (formyl-MDGCEL) (SEQ. ID. NO. 1) designed in the laboratory of the inventors, and a formylated random hexapeptide (formyl-MSADVG) (SEQ: ID: NO: 16) were either synthesized by Pepscan Presto (Lelystad, The Netherlands) or Inbiolabs (Tallinn, Estonia). The peptides were purified by RP-HPLC and mass spectrometry, and the >95% pure peptides were synthesized three times. […]
RNA extraction was performed in a designated clean RNA area with the addition of 500 μl TRIzol to each sample. […] The RNA concentration was measured using a Nanodrop Spectrophotometer ND-1000 (Bio-Rad (Hercules Calif.)). […]

formyl-MDGCEL (For-MDGCEL; listed as Homo sapiens) [Foxy-5]
growth inhibition (MTT) after tamoxifen (MDA-MB-231 cells): statistically significant growth inhibition
effect on breast cancer cell proliferation alone (MTT) (MDA-MB-231 cells): Neither rWnt-5a nor Foxy-5 had an effect
levels of cleaved caspase-3 (cleaved caspase 3): higher levels
stimulation time after which ERα mRNA was detected (ERα): 6 h

B1: recombinant Wnt-5a: recombinant Wnt-5a protein (R&D Systems) (protein, UniProt P41221 62-380, looked up)
Protein Wnt-5a: IIGAQPLCSQLAGLSQGQKKLCHLYQDHMQYIGEGAKTGIKECQYQFRHRRWNCSTVDNTSVFGRVMQIGSRETAFTYAVSAAGVVNAMSRACREGELSTCGCSRAARPKDLPRDWLWGGCGDNIDYGYRFAKEFVDARERERIHAKGSYESARILMNLHNNEAGRRTVYNLADVACKCHGVSGSCSLKTCWLQLADFRKVGDALKEKYDSAAAMRLNSRGKLVQVNSRFNSPTTQDLVYIDPSPDYCVRNESTGSLGTQGRLCNKTSEGMDGCELMCCGRGYDQFKTVQTERCHCKFHWCCYVKCKKCTEIVDQFVCK
growth inhibition (MTT) after tamoxifen (MDA-MB-231 cells): statistically significant growth inhibition
effect on breast cancer cell proliferation alone (MTT) (MDA-MB-231 cells): Neither rWnt-5a nor Foxy-5 had an effect
levels of cleaved caspase-3 (cleaved caspase 3): higher levels
stimulation time after which ERα mRNA was detected (ERα): 12 h
